In ChEMBL document CHEMBL1129781, “Inhibition of protein phosphatase 2A by cantharidin analogues” (Bioorg Med Chem Lett, 1996):

Columns and labels:
[1] = Compound was tested for inhibition of specific [3H]cantharidin binding to CBP: Range= 10-50; design: species or system Mus musculus
Mus musculus [2] = species on record: Mus musculus; assay: Compound was tested for inhibition of cantharidin-binding protein(CBP) phosphatase isolated from mouse liver: Range= 22-51; conditions: concentration not given here
[3] = target: Serine/threonine-protein phosphatase 2A 65 kDa regulatory subunit A alpha isoform (Mus musculus, UniProt Q76MZ3); assay: Compound was tested for inhibitory concentration of Protein Phosphatase 2A (PP2A).
Mus musculus [4] = species on record: Mus musculus; assay: Inhibition of Protein Phosphatase 2A (PP2A) partially purified from mouse brain; assay type: tissue-based; design: concentration or dose not given beside the values; conditions: concentration not given here
[5] = Compound was tested for inhibition of specific [3H]cantharidin binding to CBP: Range= 200->100000; design: species or system Mus musculus
Mus musculus [6] = species on record: Mus musculus; assay: Compound was tested for inhibition of cantharidin-binding protein(CBP) phosphatase isolated from mouse liver.; design: concentration or dose not given beside the values; conditions: concentration not given here
[7] = Compound was tested for inhibition of specific [3H]cantharidin binding to CBP.; design: species or system Mus musculus
[8] = Compound was tested for inhibition of specific [3H]cantharidin binding to CBP: Range=4-8; design: species or system Mus musculus
Mus musculus [9] = species on record: Mus musculus; assay: Compound was tested for inhibition of cantharidin-binding protein(CBP) phosphatase isolated from mouse liver: Range=92-95; conditions: concentration not given here

Serine/threonine-protein phosphatase 2A 65 kDa regulatory subunit A alpha isoform, sequence (Q76MZ3 whole entry, canonical isoform): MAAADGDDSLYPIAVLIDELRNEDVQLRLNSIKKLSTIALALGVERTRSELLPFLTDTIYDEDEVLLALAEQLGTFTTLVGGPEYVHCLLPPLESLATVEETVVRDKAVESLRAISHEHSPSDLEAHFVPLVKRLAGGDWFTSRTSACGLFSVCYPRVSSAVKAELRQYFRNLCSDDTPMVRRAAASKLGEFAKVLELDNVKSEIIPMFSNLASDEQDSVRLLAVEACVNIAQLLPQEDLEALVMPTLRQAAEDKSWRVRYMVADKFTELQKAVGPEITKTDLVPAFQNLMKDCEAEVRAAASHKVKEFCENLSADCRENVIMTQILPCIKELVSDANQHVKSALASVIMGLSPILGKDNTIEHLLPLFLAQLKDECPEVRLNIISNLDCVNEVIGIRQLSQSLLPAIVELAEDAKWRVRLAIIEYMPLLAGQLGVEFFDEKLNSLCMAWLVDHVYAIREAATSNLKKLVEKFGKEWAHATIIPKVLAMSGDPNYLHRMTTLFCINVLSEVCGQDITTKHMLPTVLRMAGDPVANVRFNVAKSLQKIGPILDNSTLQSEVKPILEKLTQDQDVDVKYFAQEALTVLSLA

Q: For `O=C(O)[C@@H]1[C@H](C(=O)O)[C@H]2CC[C@@H]1O2` [ENDOTHALL], which IC50 [1] is on record?
A: 0.05 µM

Q: What about the inhibition (Mus musculus [2]) of the same compound?
A: 51%

Q: With `O=C1OC(=O)C2C3CCC(O3)C12` (stereo unspecified) [DEMETHYL-CANTHARIDIN] as the compound, how does the IC50 [3] read?
A: 70 µM

Q: What about the inhibition (Mus musculus [4]) of the same compound?
A: 88.3%

Q: For `O=C(O)C1C2C=CC(O2)C1C(=O)O` (stereo unspecified), which IC50 [3] is on record?
A: 300 µM

Q: And the inhibition (Mus musculus [4])?
A: 80.3%

Q: Which inhibition (Mus musculus [4]) does the source give for `COC(=O)C1CC2C=CC1C2` (stereo unspecified) here?
A: 30.8%

Q: With `CC12CCC(C)(O1)C(C(=O)O)C2C(=O)O` (stereo unspecified) as the compound, how does the IC50 [5] read?
A: > 100 µM

Q: And the inhibition (Mus musculus [6])?
A: 0%

Q: Which inhibition (Mus musculus [4]) does the source give for `O=C1OC(=O)C2C3CCC(C3)C12` (stereo in doubt; 7) here?
A: 38.7%

Q: With `CCOC(=O)C1CC2OC1C(C(=O)O)C2C(=O)O` (stereo unspecified) as the compound, how does the IC50 [5] read?
A: > 100 µM

Q: What about the inhibition (Mus musculus [6]) of the same compound?
A: 0%

Q: With `O=C1OC(=O)[C@H]2[C@@H]1[C@H]1C=C[C@H]2C1` (stereo in doubt; 5) as the compound, how does the inhibition (Mus musculus [4]) read?
A: 48.1%

Q: Which IC50 [7] does the source give for `O=C1OC(=O)C23CCCC12C1CCC3O1` (stereo unspecified) here?
A: 4 µM

Q: And the inhibition (Mus musculus [6])?
A: 95%

Q: Which inhibition (Mus musculus [4]) does the source give for `O=C1OC(=O)C2CCCCC12` (stereo unspecified) here?
A: 9.2%

Q: With `O=C(O)C1CC2C=CC1C2` (stereo unspecified) as the compound, how does the inhibition (Mus musculus [4]) read?
A: 3.8%

Q: Which inhibition (Mus musculus [4]) does the source give for `O=C1OC(=O)[C@H]2[C@@H]1[C@H]1C=C[C@H]2C1` (stereo in doubt; 6) here?
A: 48.8%

Q: Which results are given for `CC1(C(=O)O)C2CCC(O2)C1(C)C(=O)O` (stereo unspecified) [CANTHARIDIC_ACID]?
A: IC50 [7]: 4 µM; inhibition (Mus musculus [6]): 95%

Q: Which IC50 [1] does the source give for `CC1(C(=O)O)C2CCC(O2)C1C(=O)O` (stereo unspecified) here?
A: 0.05 µM

Q: And the inhibition (Mus musculus [2])?
A: 51%

Q: With `O=C(O)C1CC2OC1C(C(=O)O)C2C(=O)O` (stereo unspecified) as the compound, how does the IC50 [1] read?
A: 0.05 µM

Q: And the inhibition (Mus musculus [2])?
A: 51%

Q: With `O=C1OC(=O)C2C3CCC(C3)C12` (stereo in doubt; 11) as the compound, how does the inhibition (Mus musculus [4]) read?
A: 13.3%

Q: For `CC12C(=O)OC(=O)C1(C)C1CCC2O1` (stereo unspecified), which IC50 [3] is on record?
A: 8 µM

Q: And the inhibition (Mus musculus [4])?
A: 95%

Q: What about the IC50 [8] of the same compound?
A: 0.004 µM

Q: What about the inhibition (Mus musculus [9]) of the same compound?
A: 92%

Q: Which inhibition (Mus musculus [4]) does the source give for `O=C(O)C1C2C=CC(C2)C1C(=O)O` (stereo unspecified) here?
A: 17.2%

Q: For `O=C1OC(=O)C2C3C=CC(O3)C12` (stereo unspecified), which IC50 [3] is on record?
A: 40 µM

Q: And the inhibition (Mus musculus [4])?
A: 95.2%

Q: Which inhibition (Mus musculus [4]) does the source give for `O=C(O)C1CC=CCC1C(=O)O` (stereo unspecified) here?
A: 12.2%

Q: With `N#CCC1CC2OC1C(C(=O)O)C2C(=O)O` (stereo unspecified) as the compound, how does the IC50 [5] read?
A: > 100 µM

Q: And the inhibition (Mus musculus [6])?
A: 0%

Q: For `O=C1OC(=O)C2CC=CCC12` (stereo unspecified), which inhibition (Mus musculus [4]) is on record?
A: 24%
